Assay results from PubChem BioAssay (NCI).
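96-well plates; 48 h exposure; 5 concentrations. Endpoints by linear interpolation between flanking doses. Not reached: highest tested concentration assigned. TGI: concentration producing complete growth inhibition.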

How the values were obtained:
Assay in all cases: DTP human tumour cell line panel, 48 h
[1] = system: M14 melanoma
[2] = system: HOP-62 NSCLC
[3] = system: SR leukemia
[4] = system: HOP-92 NSCLC
[5] = system: HCT-116 colon
[6] = system: OVCAR-3 ovarian
[7] = system: OVCAR-5 ovarian
[8] = system: M19-MEL melanoma
[9] = system: COLO 205 colon
[10] = system: A498 renal
[11] = system: K-562 leukemia
[12] = system: CCRF-CEM leukemia
[13] = system: HT29 colon
[14] = system: HL-60(TB) leukemia
[15] = system: 786-0 renal
[16] = system: RXF 393 renal
[17] = system: U251 CNS
[18] = system: UACC-257 melanoma
[19] = system: EKVX NSCLC
[20] = system: DMS 273 small cell lung
[21] = system: SK-OV-3 ovarian
[22] = system: RPMI-8226 leukemia
[23] = system: OVCAR-8 ovarian
[24] = system: UACC-62 melanoma
[25] = system: SK-MEL-28 melanoma
[26] = system: SF-295 CNS
[27] = system: SF-539 CNS
[28] = system: MOLT-4 leukemia
[29] = system: KM20L2 colon
[30] = system: DMS 114 small cell lung
[31] = system: OVCAR-4 ovarian
[32] = system: SNB-78 CNS
[33] = system: SK-MEL-2 melanoma
[34] = system: CAKI-1 renal
[35] = system: ACHN renal
[36] = system: SK-MEL-5 melanoma
[37] = system: SNB-75 CNS
[38] = system: NCI-H226 lung
[39] = system: LOX IMVI melanoma
[40] = system: SN12C renal
[41] = system: HCT-15 colon
[42] = system: A549 NSCLC
[43] = system: HCC-2998 colon
[44] = system: SNB-19 CNS
[45] = system: SW-620 colon
[46] = system: SF-268 CNS
[47] = system: NCI-H522 lung
[48] = system: KM12 colon
[49] = system: NCI-H23 lung
[50] = system: UO-31 renal
[51] = system: TK-10 renal
[52] = system: MALME-3M melanoma
[53] = system: NCI-H460 lung
[54] = system: IGROV1 ovarian
[55] = system: XF 498 CNS
[56] = system: DLD-1 colon
[57] = system: LXFL 529 NSCLC

## COC(=O)c1cnc2nc(N3CCOCC3)[nH]n2c1=O
[1]
  TGI: > 100 µM
[2]
  TGI: > 100 µM
[3]
  TGI: > 100 µM
[4]
  TGI: > 100 µM
[5]
  TGI: > 100 µM
[6]
  TGI: > 100 µM
[7]
  TGI: > 100 µM
[8]
  TGI: > 100 µM
[9]
  TGI: > 100 µM
[10]
  TGI: > 100 µM
[11]
  TGI: > 100 µM
[12]
  TGI: > 100 µM
[13]
  TGI: > 100 µM
[14]
  TGI: > 100 µM
[15]
  TGI: > 100 µM
[16]
  TGI: > 100 µM
[17]
  TGI: > 100 µM
[18]
  TGI: > 100 µM
[19]
  TGI: > 100 µM
[20]
  TGI: > 100 µM
[21]
  TGI: > 100 µM
[22]
  TGI: > 100 µM
[23]
  TGI: > 100 µM
[24]
  TGI: > 100 µM
[25]
  TGI: > 100 µM
[26]
  TGI: > 100 µM
[27]
  TGI: > 100 µM
[28]
  TGI: > 100 µM
[29]
  TGI: > 100 µM
[30]
  TGI: > 100 µM
[31]
  TGI: > 100 µM
[32]
  TGI: > 100 µM
[33]
  TGI: > 100 µM
[34]
  TGI: > 100 µM
[35]
  TGI: > 100 µM
[36]
  TGI: > 100 µM
[37]
  TGI: > 100 µM
[38]
  TGI: > 100 µM
[39]
  TGI: > 100 µM
[40]
  TGI: > 100 µM
[41]
  TGI: > 100 µM
[42]
  TGI: > 100 µM
[43]
  TGI: > 100 µM
[44]
  TGI: > 100 µM
[45]
  TGI: > 100 µM
[46]
  TGI: > 100 µM
[47]
  TGI: > 100 µM
[48]
  TGI: > 100 µM
[49]
  TGI: > 100 µM
[50]
  TGI: > 100 µM
[51]
  TGI: > 100 µM
[52]
  TGI: > 100 µM
[53]
  TGI: > 100 µM
[54]
  TGI: > 100 µM

## CC(=O)O[C@]1(C(C)=O)CC[C@H]2[C@@H]3C[C@H](C)C4=CC(=O)C=C[C@]4(C)[C@@]3(F)[C@@H](O)C[C@@]21C
[1]
  TGI: > 100 µM
[2]
  TGI: > 100 µM
[3]
  TGI: > 100 µM
[4]
  TGI: > 100 µM
[5]
  TGI: > 100 µM
[6]
  TGI: > 100 µM
[7]
  TGI: > 100 µM
[8]
  TGI: > 100 µM
[9]
  TGI: > 100 µM
[11]
  TGI: > 100 µM
[12]
  TGI: > 100 µM
[13]
  TGI: > 100 µM
[14]
  TGI: > 100 µM
[15]
  TGI: > 100 µM
[16]
  TGI: > 100 µM
[17]
  TGI: > 100 µM
[18]
  TGI: > 100 µM
[19]
  TGI: > 100 µM
[20]
  TGI: > 100 µM
[21]
  TGI: 51 µM
[55]
  TGI: > 100 µM
[22]
  TGI: > 100 µM
[24]
  TGI: > 100 µM
[25]
  TGI: > 100 µM
[56]
  TGI: > 100 µM
[26]
  TGI: > 100 µM
[27]
  TGI: > 100 µM
[28]
  TGI: > 100 µM
[29]
  TGI: > 100 µM
[30]
  TGI: > 100 µM
[31]
  TGI: 90.8 µM
[32]
  TGI: > 100 µM
[34]
  TGI: > 100 µM
[35]
  TGI: > 100 µM
[36]
  TGI: > 100 µM
[37]
  TGI: > 100 µM
[38]
  TGI: > 100 µM
[39]
  TGI: > 100 µM
[41]
  TGI: > 100 µM
[42]
  TGI: > 100 µM
[43]
  TGI: > 100 µM
[44]
  TGI: > 100 µM
[45]
  TGI: > 100 µM
[46]
  TGI: > 100 µM
[47]
  TGI: > 100 µM
[48]
  TGI: > 100 µM
[49]
  TGI: > 100 µM
[50]
  TGI: 98.9 µM
[51]
  TGI: > 100 µM
[52]
  TGI: > 100 µM
[53]
  TGI: > 100 µM
[54]
  TGI: > 100 µM

## COc1nc(OC)c2c(=O)oc(-c3ccccc3)cc2n1
[3]
  TGI: > 100 µM
[4]
  TGI: > 100 µM
[5]
  TGI: > 100 µM
[7]
  TGI: > 100 µM
[57]
  TGI: > 100 µM
[8]
  TGI: > 100 µM
[11]
  TGI: > 100 µM
[13]
  TGI: > 100 µM
[15]
  TGI: > 100 µM
[16]
  TGI: > 100 µM
[17]
  TGI: > 100 µM
[18]
  TGI: > 100 µM
[19]
  TGI: > 100 µM
[20]
  TGI: > 100 µM
[21]
  TGI: > 100 µM
[22]
  TGI: > 100 µM
[23]
  TGI: > 100 µM
[24]
  TGI: > 100 µM
[25]
  TGI: > 100 µM
[26]
  TGI: > 100 µM
[27]
  TGI: > 100 µM
[28]
  TGI: > 100 µM
[29]
  TGI: > 100 µM
[30]
  TGI: > 100 µM
[31]
  TGI: > 100 µM
[32]
  TGI: > 100 µM
[33]
  TGI: > 100 µM
[34]
  TGI: > 100 µM
[35]
  TGI: > 100 µM
[36]
  TGI: > 100 µM
[37]
  TGI: > 100 µM
[38]
  TGI: > 100 µM
[40]
  TGI: > 100 µM
[41]
  TGI: > 100 µM
[42]
  TGI: > 100 µM
[43]
  TGI: > 100 µM
[44]
  TGI: > 100 µM
[45]
  TGI: > 100 µM
[46]
  TGI: > 100 µM
[47]
  TGI: > 100 µM
[48]
  TGI: > 100 µM
[49]
  TGI: > 100 µM
[50]
  TGI: > 100 µM
[51]
  TGI: > 100 µM
[52]
  TGI: > 100 µM
[54]
  TGI: > 100 µM

## CCCCCCCCCCCCCCCC[N+](C)(C)Cc1ccc(C[N+](C)(C)CCCCCCCCCCCCCCCC)cc1
[1]
  TGI: > 100 µM
[2]
  TGI: > 100 µM
[3]
  TGI: > 100 µM
[7]
  TGI: 4.67 µM
[57]
  TGI: > 100 µM
[8]
  TGI: > 100 µM
[9]
  TGI: > 100 µM
[10]
  TGI: > 100 µM
[11]
  TGI: 8.52 µM
[16]
  TGI: 3.27 µM
[17]
  TGI: 3.82 µM
[18]
  TGI: > 100 µM
[19]
  TGI: > 100 µM
[21]
  TGI: 5.27 µM
[22]
  TGI: > 100 µM
[24]
  TGI: > 100 µM
[25]
  TGI: 7.57 µM
[56]
  TGI: > 100 µM
[29]
  TGI: > 100 µM
[30]
  TGI: 5.02 µM
[31]
  TGI: > 100 µM
[34]
  TGI: > 100 µM
[35]
  TGI: > 100 µM
[36]
  TGI: > 100 µM
[39]
  TGI: 6.07 µM
[41]
  TGI: > 100 µM
[43]
  TGI: > 100 µM
[45]
  TGI: > 100 µM
[46]
  TGI: > 100 µM
[47]
  TGI: > 22.4 µM
[50]
  TGI: > 100 µM
[51]
  TGI: > 100 µM
[53]
  TGI: 8.71 µM
